Legend:
Format in all cases: cell-based
[1] = test system: human acute myelocytic leukemia MV4; 11 cells; experiment: Growth inhibition test on human acute myelocytic leukemia MV4; 11 cells (WST-1, % viability); conditions: test compound 10 μmol/L, cells without test compound = 100%
Description: (§1) Ten thousand cells of human acute myelocytic leukemia MV4; 11 were inoculated into each well of a 96-well microplate (manufactured by Nunc Corp.), and using IMDM medium (culture medium) containing 10% FCS, preculturing was performed in a 5% carbon dioxide incubator at 37° C. for 24 hours. A DMSO solution of each test compound prepared in a concentration of 10 mmol/L was diluted with the culture medium to a final concentration of 10 μmol/L, and the diluted solution was added to each well. The individual wells were further cultured in the 5% carbon dioxide incubator at 37° C. for 72 hours. After completion of the culturing, 10 μL of WST-1 labeled mixture (manufactured by Roche Diagnostic Corp.) was added to each well, and culturing was performed in the 5% carbon dioxide incubator at 37° C. for 1 hour. Using a microplate spectrophotometer (SpectraMax 340PC384; manufactured by Nihon Molecular Devices), the absorbance of each well was measured at 450 nm and 655 nm. The value obtained by subtracting the absorbance at 450 nm from the absorbance at 655 nm (absorbance difference) was calculated for each well. The value for cells not incorporated with a test compound was designated as 100%, and the value at a well not containing cells was designated as 0%. By comparing these values with the absorbance difference obtained at the well in which each test compound was added, the cell viability (% viability) after treatment with the test compound was calculated.

[2] = test system: human multiple myeloma NCI-H929 cells; experiment: Growth inhibition test on human multiple myeloma NCI-H929 cells (WST-1, % viability); conditions: test compound 10 μmol/L, cells without test compound = 100%
Description: as §1, with “multiple myeloma NCI-H929” for “acute myelocytic leukemia MV4; 11”, “RPMI” for “IMDM”, “2 hours.” for “1 hour.”

[3] = test system: human chronic lymphocytic leukemia-derived MEC-1 cells; experiment: Growth inhibition test on human chronic lymphocytic leukemia-derived MEC-1 cells (WST-1, % viability); conditions: test compound 10 μmol/L, 72 hours, cells without test compound = 100%
Description: (§2) Ten thousand cells of human chronic lymphocytic leukemia-derived MEC-1 were inoculated into each well of a 96-well microplate (manufactured by Nunc Corp.), and using RPMI1640 medium (culture medium) containing 10% FCS, preculturing was performed in a 5% carbon dioxide incubator at 37° C. for 1 hour. A DMSO solution of each test compound prepared in a concentration of 10 mmol/L was diluted with the culture medium to a final concentration of 10 μmol/L, and the diluted solution was added to each well. The individual wells were further cultured in the 5% carbon dioxide incubator at 37° C. for 72 hours. After completion of the culturing, 10 μL of WST-1 labeled mixture (manufactured by Roche Diagnostic Corp.) was added to each well, and culturing was performed in the 5% carbon dioxide incubator at 37° C. for 3 hours. Using a microplate spectrophotometer (M-SPmax 250; manufactured by Molecular Devices Corp.), the absorbance of each well was measured at 450 nm and 655 nm. The value obtained by subtracting the absorbance at 450 nm from the absorbance at 655 nm (absorbance difference) was calculated for each well. The value for cells not incorporated with a test compound was designated as 100%, and the value at a well not containing cells was designated as 0%. By comparing these values with the absorbance difference obtained at the well in which each test compound was added, the cell viability (% viability) after treatment with the test compound was calculated.

[4] = test system: human lung cancer NCI-H596 cells; experiment: Growth inhibition test on human lung cancer NCI-H596 cells (WST-1, % viability); conditions: test compound 10 μmol/L, cells without test compound = 100%
Description: as §2, with “Four thousand” for “Ten thousand”, “human lung cancer NCI-H596” for “human chronic lymphocytic leukemia-derived MEC-1”, “for 24 hours.” for “for 1 hour.”, “for 2” for “for 3”, “spectrophotometer (Model 550;” for “spectrophotometer (M-SPmax 250;”, “by Bio-Rad),” for “by Molecular Devices Corp.),”

[5] = test system: human prostate cancer 22Rv1 cells; experiment: Growth inhibition test on human prostate cancer 22Rv1 cells (WST-1, % viability); conditions: test compound 10 μmol/L, 72 hours, cells without test compound = 100%
Description: as §2, with “Five thousand” for “Ten thousand”, “human prostate cancer 22Rv1” for “human chronic lymphocytic leukemia-derived MEC-1”, “for 24 hours.” for “for 1 hour.”, “for 2” for “for 3”, “spectrophotometer (Model 550;” for “spectrophotometer (M-SPmax 250;”, “by Bio-Rad),” for “by Molecular Devices Corp.),”

In the case of `CCc1c(O)cc(O)c(C(=O)c2ccsc2)c1CC(=O)N(CCO)CCOC` [Compound 151], the “Viability of tumor cells (% viability), Human acute myelocytic leukemia MV4; 11 cells” value [1] is reported as 0%, the “Viability of tumor cells (% viability), Human multiple myeloma NCI-H929 cells” value [2] is reported as 0% and the “Viability of tumor cells (% viability), Human chronic lymphocytic leukemia MEC-1 cells” value [3] is reported as 4%. For the same compound, the “Viability of tumor cells (% viability), Human lung cancer NCI-H596 cells” value [4] was 28% and the “Viability of tumor cells (% viability), Human prostate cancer 22Rv1 cells” value [5] was 5%.
In the case of `CCOc1ccc(C(=O)c2c(O)cc(O)c(CC)c2CC(=O)N(CCO)CCOC)cc1` [Compound 122], the “Viability of tumor cells (% viability), Human acute myelocytic leukemia MV4; 11 cells” value [1] is reported as 0%, the “Viability of tumor cells (% viability), Human multiple myeloma NCI-H929 cells” value [2] is reported as 0% and the “Viability of tumor cells (% viability), Human chronic lymphocytic leukemia MEC-1 cells” value [3] is reported as 4%. The “Viability of tumor cells (% viability), Human lung cancer NCI-H596 cells” value [4] was 15% and the “Viability of tumor cells (% viability), Human prostate cancer 22Rv1 cells” value [5] was 5%.
With `CCc1c(O)cc(O)c(C(=O)c2ccc(OCCN3CCOCC3)c(OC)c2)c1CC(=O)N(CCOC)CCOC.Cl` [Compound 139] the “Viability of tumor cells (% viability), Human acute myelocytic leukemia MV4; 11 cells” value [1] was 1%, the “Viability of tumor cells (% viability), Human multiple myeloma NCI-H929 cells” value [2] was 0% and the “Viability of tumor cells (% viability), Human chronic lymphocytic leukemia MEC-1 cells” value [3] was 5%. For the same compound, the “Viability of tumor cells (% viability), Human lung cancer NCI-H596 cells” value [4] was 16% and the “Viability of tumor cells (% viability), Human prostate cancer 22Rv1 cells” value [5] was 5%.
In the case of `CCc1c(O)cc(O)c(C(=O)c2ccc(S(C)(=O)=O)cc2)c1CC(=O)N(CCOC)CCOC` [Compound 107], the “Viability of tumor cells (% viability), Human acute myelocytic leukemia MV4; 11 cells” value [1] is reported as 0%, the “Viability of tumor cells (% viability), Human multiple myeloma NCI-H929 cells” value [2] is reported as 0% and the “Viability of tumor cells (% viability), Human chronic lymphocytic leukemia MEC-1 cells” value [3] is reported as 5%. For the same compound, the “Viability of tumor cells (% viability), Human lung cancer NCI-H596 cells” value [4] was 16% and the “Viability of tumor cells (% viability), Human prostate cancer 22Rv1 cells” value [5] was 5%.
For `CCc1c(O)cc(O)c(C(=O)c2ccc(OC)cc2)c1CC(=O)N(C)Cc1cccnc1` [Compound 16], the “Viability of tumor cells (% viability), Human acute myelocytic leukemia MV4; 11 cells” value [1] was 0%, the “Viability of tumor cells (% viability), Human multiple myeloma NCI-H929 cells” value [2] was 0% and the “Viability of tumor cells (% viability), Human chronic lymphocytic leukemia MEC-1 cells” value [3] was 3%. The “Viability of tumor cells (% viability), Human lung cancer NCI-H596 cells” value [4] was 19% and the “Viability of tumor cells (% viability), Human prostate cancer 22Rv1 cells” value [5] was 5%.
In the case of `CCc1c(O)cc(O)c(C(=O)c2ccc(OC(C)C)cc2)c1CC(=O)N(CCO)CCOC` [Compound 124], the “Viability of tumor cells (% viability), Human acute myelocytic leukemia MV4; 11 cells” value [1] is reported as 0%, the “Viability of tumor cells (% viability), Human multiple myeloma NCI-H929 cells” value [2] is reported as 0% and the “Viability of tumor cells (% viability), Human chronic lymphocytic leukemia MEC-1 cells” value [3] is reported as 4%. The “Viability of tumor cells (% viability), Human lung cancer NCI-H596 cells” value [4] was 15% and the “Viability of tumor cells (% viability), Human prostate cancer 22Rv1 cells” value [5] was 5%.
In the case of `CCc1c(O)cc(O)c(C(=O)c2ccc(OC)cc2)c1CC(=O)N(CCO)Cc1ccco1` [Compound 69], the “Viability of tumor cells (% viability), Human acute myelocytic leukemia MV4; 11 cells” value [1] is reported as 0%, the “Viability of tumor cells (% viability), Human multiple myeloma NCI-H929 cells” value [2] is reported as 0% and the “Viability of tumor cells (% viability), Human chronic lymphocytic leukemia MEC-1 cells” value [3] is reported as 4%. The “Viability of tumor cells (% viability), Human lung cancer NCI-H596 cells” value [4] was 15% and the “Viability of tumor cells (% viability), Human prostate cancer 22Rv1 cells” value [5] was 5%.
In the case of `CCc1c(O)cc(O)c(C(=O)c2ccc(OC)cc2)c1CC(=O)N(CCO)CCOC` [Compound 33], the “Viability of tumor cells (% viability), Human acute myelocytic leukemia MV4; 11 cells” value [1] is reported as 0%, the “Viability of tumor cells (% viability), Human multiple myeloma NCI-H929 cells” value [2] is reported as 0% and the “Viability of tumor cells (% viability), Human chronic lymphocytic leukemia MEC-1 cells” value [3] is reported as 4%. The “Viability of tumor cells (% viability), Human lung cancer NCI-H596 cells” value [4] was 20% and the “Viability of tumor cells (% viability), Human prostate cancer 22Rv1 cells” value [5] was 5%.
With `CCc1c(O)cc(O)c(C(=O)c2ccc(OC)c(OC)c2)c1CC(=O)N(CCO)CCOC` [Compound 56] the “Viability of tumor cells (% viability), Human acute myelocytic leukemia MV4; 11 cells” value [1] was 0%, the “Viability of tumor cells (% viability), Human multiple myeloma NCI-H929 cells” value [2] was 0% and the “Viability of tumor cells (% viability), Human chronic lymphocytic leukemia MEC-1 cells” value [3] was 4%. For the same compound, the “Viability of tumor cells (% viability), Human lung cancer NCI-H596 cells” value [4] was 20% and the “Viability of tumor cells (% viability), Human prostate cancer 22Rv1 cells” value [5] was 5%.
With `CCc1c(O)cc(O)c(C(=O)c2ccc(OCCN3CCOCC3)c(OC)c2)c1CC(=O)N(CCOC)CCOC` [Compound 125] the “Viability of tumor cells (% viability), Human acute myelocytic leukemia MV4; 11 cells” value [1] was 0%, the “Viability of tumor cells (% viability), Human multiple myeloma NCI-H929 cells” value [2] was 0% and the “Viability of tumor cells (% viability), Human chronic lymphocytic leukemia MEC-1 cells” value [3] was 5%. The “Viability of tumor cells (% viability), Human lung cancer NCI-H596 cells” value [4] was 17% and the “Viability of tumor cells (% viability), Human prostate cancer 22Rv1 cells” value [5] was 5%.
